Values after ≈ are worked out from the molar mass of the structure shown.
Assays:
[1] = system: in vitro grown Mycobacteria (M. tuberculosis); assay: QUM: Quantification of in vitro grown Mycobacteria (in vitro growth fluorescence assay); format: cell-based; details: Mycobacterium tuberculosis; MIC, 80% bacterial growth inhibition; in vitro growth; read-out: QUM
Summary of the method: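 Mycobacterium tuberculosis grown in vitro was quantified by fluorescence across compound dose responses. MIC is defined as the minimum concentration producing 80% growth inhibition.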

[2] = system: M. tuberculosis inside the host macrophage; assay: QIM: Quantification of Intracellular Mycobacteria (intracellular growth assay, phenotypic cell-based); details: Mycobacterium tuberculosis; MIC, 80% bacterial growth inhibition; intracellular growth; read-out: QIM
Summary of the method: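 Dose-response testing of intracellular mycobacterial replication in infected macrophages, a cell-based screening format; MIC is defined as the lowest concentration achieving 80% inhibition of bacterial growth.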

SMILES | MIC [1] [µM] | MIC [2] [µM]
CCc1nc2ccc(Cl)cn2c1C(=O)NCc1ccc(-c2ccc(Cl)cc2C(F)(F)F)cc1 [Compound 129, 6-Chloro-N-((4′-chloro-2′-(trifluoromethyl)biphenyl-4-yl)methyl)-2-ethylimidazo[1,2-a]pyridine-3-carboxamide] | < 1 | < 1
CCc1nc2cc(Cl)ccn2c1C(=O)NCc1ccc(-c2ccc(Cl)cc2C(F)(F)F)cc1 [Compound 130, 7-Chloro-N-((4′-chloro-2′-(trifluoromethyl)biphenyl-4-yl)methyl)-2-ethylimidazo[1,2-a]pyridine-3-carboxamide] | 1 to 20 (≈ 0.492 to 9.85 µg/mL) | < 1
CCc1nc2ccc(Cl)cn2c1C(=O)NCc1ccc(-c2ccc(C#N)cc2C)cc1 [Compound 131, 6-Chloro-N-((4′-cyano-2′-methylbiphenyl-4-yl)methyl)-2-ethylimidazo[1,2-a]pyridine-3-carboxamide] | < 1 | < 1
CCc1nc2cc(Cl)ccn2c1C(=O)NCc1ccc(-c2ccc(C#N)cc2C)cc1 [Compound 132, 7-Chloro-N-((4′-cyano-2′-methylbiphenyl-4-yl)methyl)-2-ethylimidazo[1,2-a]pyridine-3-carboxamide] | < 1 | < 1
CCc1nc2cc(Cl)ccn2c1C(=O)NCc1ccc(-c2ccc(F)cc2Cl)cc1 [Compound 133, 7-Chloro-N-((2′-chloro-4′-fluorobiphenyl-4-yl)methyl)-2-ethylimidazo[1,2-a]pyridine-3-carboxamide] | < 1 | < 1
CCc1nc2cc(Cl)ccn2c1C(=O)NCc1ccc(-c2ccncc2)cc1 [Compound 134, 7-Chloro-2-ethyl-N-(4-(pyridin-4-yl)benzyl)imidazo[1,2-a]pyridine-3-carboxamide] | 1 to 20 (≈ 0.391 to 7.82 µg/mL) | < 1
CCc1nc2cc(Cl)ccn2c1C(=O)NCc1ccc(-c2ccc(OC)cn2)cc1 [Compound 135, 7-Chloro-2-ethyl-N-(4-(5-methoxypyridin-2-yl)benzyl)imidazo[1,2-a]pyridine-3-carboxamide] | 1 to 20 (≈ 0.421 to 8.42 µg/mL) | < 1
CCc1nc2cc(Cl)ccn2c1C(=O)NCc1ccc(-c2ccc[nH]2)cc1 [Compound 136, N-(4-(1H-Pyrrol-2-yl)benzyl)-7-chloro-2-ethylimidazo[1,2-a]pyridine-3-carboxamide] | 1 to 20 (≈ 0.379 to 7.58 µg/mL) | 1 to 20 (≈ 0.379 to 7.58 µg/mL)
CCc1nc2cc(Cl)ccn2c1C(=O)NCc1ccc(-c2ccco2)cc1 [Compound 137, 7-Chloro-2-ethyl-N-(4-(furan-2-yl)benzyl)imidazo[1,2-a]pyridine-3-carboxamide] | 1 to 20 (≈ 0.38 to 7.6 µg/mL) | < 1
CCc1nc2cc(Cl)ccn2c1C(=O)NCc1ccc(-n2cccc2)cc1 [Compound 138, N-(4-(1H-Pyrrol-1-yl)benzyl)-7-chloro-2-ethylimidazo[1,2-a]pyridine-3-carboxamide] | < 1 | < 1
CCc1nc2ccc(Cl)cn2c1C(=O)NCc1ccc(N2CCC(Oc3ccc(OC(F)(F)F)cc3)CC2)cc1 [Compound 139, 6-Chloro-2-ethyl-N-(4-(4-(4-(trifluoromethoxy)phenoxy)piperidin-1-yl)benzyl)imidazo-[1,2-a]pyridine-3-carboxamide] | < 1 | < 1
CCc1nc2cc(Cl)ccn2c1C(=O)NCc1ccc(N2CCC(Oc3ccc(OC(F)(F)F)cc3)CC2)cc1 [Compound 140, 7-Chloro-2-ethyl-N-(4-(4-(4-(trifluoromethoxy)phenoxy)piperidin-1-yl)benzyl)imidazo-[1,2-a]pyridine-3-carboxamide] | < 1 | < 1
CCc1nc2cnccn2c1C(=O)NCc1ccc(-c2ccc(Cl)cc2)cc1 [Compound 141, N-((4′-Chlorobiphenyl-4-yl)methyl)-2-ethylimidazo[1,2-a]pyrazine-3-carboxamide] | < 1 | < 1
CCc1nc2cc(Cl)ccn2c1NC(=O)c1ccc(-c2ccccc2)cc1 [Compound 142, N-(7-Chloro-2-ethylimidazo[1,2-a]pyridin-3-yl)biphenyl-4-carboxamide] | > 20 | > 20
CCc1nc2cc(Cl)ccn2c1NC(=O)Cc1ccc(-c2ccccc2)cc1 [Compound 143, 2-(Biphenyl-4-yl)-N-(7-chloro-2-ethylimidazo[1,2-a]pyridin-3-yl)acetamide] | 1 to 20 (≈ 0.39 to 7.8 µg/mL) | < 1
CCCC(=O)NCc1ccc(N2CCN(c3ccc(CNC(=O)c4c(CC)nc5cc(Cl)ccn45)cc3)CC2)cc1 [Compound 144, N-(4-(4-(4-(Butyramidomethyl)phenyl)piperazin-1-yl)benzyl)-7-chloro-2-ethylimidazo-[1,2-a]pyridine-3-carboxamide] | < 1 | < 1
CCc1nc2cc(N3CCNCC3)ccn2c1C(=O)NCc1ccc(C(C)(C)C)cc1 [Compound 145, N-(4-tert-Butylbenzyl)-2-ethyl-7-(piperazin-1-yl)imidazo[1,2-a]pyridine-3-carboxamide] | > 20 | > 20

SMILES | MIC [1] [µM] | MIC [2] [µM]
CCc1nc2ccc([N+](=O)[O-])cn2c1C(=O)NCc1ccc(OC(F)(F)F)cc1 [Compound 149, 2-Ethyl-6-nitro-N-(4-(trifluoromethoxy)benzyl)imidazo[1,2-a]pyridine-3-carboxamide] | > 20 | > 20
CCc1nc2cc([N+](=O)[O-])ccn2c1C(=O)NCc1ccc(OC(F)(F)F)cc1 [Compound 150, 2-Ethyl-7-nitro-N-(4-(trifluoromethoxy)benzyl)imidazo[1,2-a]pyridine-3-carboxamide] | > 20 | > 20
CCc1nc2ccc(C(F)(F)F)cn2c1C(=O)NCc1ccc(OC(F)(F)F)cc1 [Compound 151, 2-Ethyl-N-(4-(trifluoromethoxy)benzyl)-6-(trifluoromethyl)imidazo[1,2-a]pyridine-3-carboxamide] | 1 to 20 (≈ 0.431 to 8.63 µg/mL) | > 20
CCc1nc2ccc(Br)cn2c1C(=O)NCc1ccc(OC(F)(F)F)cc1 [Compound 152, 6-Bromo-2-ethyl-N-(4-(trifluoromethoxy)benzyl)imidazo[1,2-a]pyridine-3-carboxamide] | < 1 | < 1
CCc1nc2cc(Cl)c(Cl)cn2c1C(=O)NCc1ccc(OC(F)(F)F)cc1 [Compound 153, 6,7-Dichloro-2-ethyl-N-(4-(trifluoromethoxy)benzyl)imidazo[1,2-a]pyridine-3-carboxamide] | 1 to 20 (≈ 0.432 to 8.64 µg/mL) | > 20
Cc1nc2ccc(Cl)cn2c1C(=O)NCc1ccc(OC(F)(F)F)cc1 [Compound 154, 6-Chloro-2-methyl-N-(4-(trifluoromethoxy)benzyl)imidazo[1,2-a]pyridine-3-carboxamide] | < 1 | 1 to 20 (≈ 0.384 to 7.68 µg/mL)
CCCC(=O)NCc1ccc(-c2ccc(CNC(=O)c3c(CC)nc4cc(Cl)ccn34)cc2)cc1 [Compound 159, N-((4′-(Butyramidomethyl)biphenyl-4-yl)methyl)-7-chloro-2-ethylimidazo[1,2-a]pyridine-3-carboxamide] | < 1 | < 1
CCc1nc2ccc(Cl)cn2c1C(=O)NCc1ccc(N2CCC(Oc3ccc(Cl)cc3)CC2)cc1 [Compound 162, 6-Chloro-N-(4-(4-(4-chlorophenoxy)piperidin-1-yl)benzyl)-2-ethylimidazo[1,2-a]pyridine-3-carboxamide] | < 1 | < 1
CCc1nc2cc(Cl)ccn2c1C(=O)NCc1ccc(N2CCC(Oc3ccc(Cl)cc3)CC2)cc1 [Compound 163, 7-Chloro-N-(4-(4-(4-chlorophenoxy)piperidin-1-yl)benzyl)-2-ethylimidazo[1,2-a]pyridine-3-carboxamide] | < 1 | < 1
CCc1nc2ccc(Cl)cn2c1C(=O)NCc1ccc(N2CCC(Oc3ccc(C(F)(F)F)cc3)CC2)cc1 [Compound 164, 6-Chloro-2-ethyl-N-(4-(4-(4-(trifluoromethyl)phenoxy)piperidin-1-yl)benzyl) imidazo[1,2-a]pyridine-3-carboxamide] | < 1 | < 1
CCc1nc2cc(Cl)ccn2c1C(=O)NCc1ccc(N2CCC(Oc3ccc(C(F)(F)F)cc3)CC2)cc1 [Compound 165, 7-Chloro-2-ethyl-N-(4-(4-(4-(trifluoromethyl)phenoxy)piperidin-1-yl)benzyl) imidazo[1,2-a]pyridine-3-carboxamide] | < 1 | < 1
CCc1nc2ccc(Cl)cn2c1C(=O)NCc1ccc(N2CCC(Oc3ccc(F)cc3)CC2)cc1 [Compound 166, 6-Chloro-2-ethyl-N-(4-(4-(4-fluorophenoxy)piperidin-1-yl)benzyl)imidazo[1,2-a]pyridine-3-carboxamide] | < 1 | < 1
CCc1nc2ccc(C(F)(F)F)cn2c1C(=O)NCc1ccc(N2CCC(Oc3ccc(OC(F)(F)F)cc3)CC2)cc1 [Compound 168, 2-Ethyl-N-(4-(4-(4-(trifluoromethoxy)phenoxy)piperidin-1-yl)benzyl)-6-(trifluoromethyl)imidazo[1,2-a]pyridine-3-carboxamide] | 1 to 20 (≈ 0.607 to 12.1 µg/mL) | 1 to 20 (≈ 0.607 to 12.1 µg/mL)
CCc1nc2cc([N+](=O)[O-])ccn2c1C(=O)NCc1ccc(N2CCC(Oc3ccc(OC(F)(F)F)cc3)CC2)cc1 [Compound 170, 2-Ethyl-7-nitro-N-(4-(4-(4-(trifluoromethoxy)phenoxy)piperidin-1-yl)benzyl) imidazo[1,2-a]pyridine-3-carboxamide] | 1 to 20 (≈ 0.584 to 11.7 µg/mL) | 1 to 20 (≈ 0.584 to 11.7 µg/mL)
CCc1nc2ccc(Cl)cn2c1C(=O)NCc1ccc(N2CCN(Cc3ccc(F)cc3)CC2)cc1 [Compound 171, 6-Chloro-2-ethyl-N-(4-(4-(4-fluorobenzyl)piperazin-1-yl)benzyl)imidazo[1,2-a]pyridine-3-carboxamide] | < 1 | < 1
CCc1nc2cc(Cl)c(Cl)cn2c1C(=O)NCc1ccc(N2CCN(Cc3ccc(F)cc3)CC2)cc1 [Compound 175, 6,7-Dichloro-2-ethyl-N-(4-(4-(4-fluorobenzyl)piperazin-1-yl)benzyl)imidazo[1,2-a]pyridine-3-carboxamide] | > 20 | < 1
